From ChEMBL document CHEMBL1124228, “Synthesis of (aryloxy)alkylamines. 1. Novel antisecretory agents with H+K+-ATPase inhibitory activity” (J Med Chem, 1988)

Legend:
[1] = biological target: T1, Potassium-transporting ATPase (Homo sapiens, UniProt P20648); assay: Antisecretory activity evaluated by the inhibition of 14C -AP uptake in isolated rabbit parietal cells stimulated by dibutyryl cyclic adenosine 3', 5' -monophosphate (dcAMP); type: functional, Oryctolagus cuniculus
[2] = biological target: T1, Potassium-transporting ATPase; assay: Antisecretory activity evaluated by the inhibition of 14C -AP uptake in isolated rabbit parietal cells stimulated by exogenous histamine; type: functional, Oryctolagus cuniculus
Rattus norvegicus [3] = assay: Percent inhibition of total acid secretion in pylorus-ligated rats at an id dose of 20 mg/kg; type: functional; details: route intraduodenal
Rattus norvegicus [4] = assay: Percent inhibition of total acid secretion in pylorus-ligated rats at an id dose of 40 mg/kg; type: functional; details: route intraduodenal
Rattus norvegicus [5] = assay: Effective dose required for the inhibition of total acid secretion in pylorus-ligated rats at 20 mg/kg; type: functional
Rattus norvegicus [6] = organism: Rattus norvegicus; assay: Effective dose required for the inhibition of total acid secretion in pylorus-ligated rats; type: functional
[7] = target entry is the homologue from another species

SMILES | IC50 [1, 7] [nM] | IC50 [2, 7] [nM] | inhibition in vivo at 20 mg/kg (Rattus norvegicus [3]) [%] | other results
c1ccc(-c2nc(-c3ccc(OCCCN4CCCCC4)cc3)cs2)cc1 | 50 | 110 | 46 | –
CCCCN(CCCC)CCCOc1ccc(/C=C/c2nc3ccccc3[nH]2)cc1 | 1500 | 2300 | 2.8 | –
CCCCN(CCCC)CCCOc1ccc(/C=C/c2nc3ccccc3o2)cc1 | 150 | 150 | – | inhibition in vivo at 40 mg/kg (Rattus norvegicus [4]): 96%
COc1ccc2[nH]c([S+]([O-])Cc3ncc(C)c(OC)c3C)nc2c1 (stereo not given) [OMEPRAZOLE] | – | – | – | ED50 (Rattus norvegicus [5]): 7.1 mg/kg
C(=C\c1nc2ccccc2o1)/c1ccc(OCCCCn2ccnc2)cc1 | 330 | 270 | 14 | –
C(=C\c1nc2ccccc2s1)/c1ccc(OCCCn2ccnc2)cc1 | 340 | 130 | 22 | –
CNC(=C[N+](=O)[O-])NCCSCc1ccc(CN(C)C)o1 [RANITIDINE] | – | 40 | – | ED50 (Rattus norvegicus [5]): 9.1 mg/kg
CCCCN(CCCC)CCOc1ccc(/C=C/c2nc3ccccc3o2)cc1 | 540 | 260 | 43 | –
CCCCN(CCCC)CCCOc1ccc(/C=C/c2nc3ccccc3s2)cc1 | 260 | 250 | 40 | –
CCCCN(CCCC)CCCOc1ccc(-c2csc(-c3cccnc3)n2)cc1 | 880 | 1650 | 19 | –
CCCCN(CCCC)CCOc1ccc(/C=C/c2nc3ccccc3s2)cc1 | 600 | 430 | – | inhibition in vivo at 20 mg/kg (Rattus norvegicus [5]): 14%
CCCCN(CCCC)CCCCOc1ccc(-c2csc(-c3ccccc3)n2)cc1 | 120 | 130 | 56 | –
CCCCN(CCCC)CCCOc1ccc(/C=C/c2nc3ccc(OC)cc3o2)cc1 | 50 | 80 | – | inhibition in vivo at 40 mg/kg (Rattus norvegicus [4]): 64%
C(=C\c1nc2ccccc2s1)/c1ccc(OCCCCn2ccnc2)cc1 | 260 | 200 | – | inhibition in vivo at 40 mg/kg (Rattus norvegicus [4]): 17%
CCCCN(CCCC)CCCCCOc1ccc(-c2csc(-c3ccccc3)n2)cc1 | 860 | 490 | 54 | –
CCCCN(CCCC)CCCOc1ccc(-c2csc(-c3ccc(C(F)(F)F)cc3)n2)cc1 | 2000 | 2900 | – | inhibition in vivo at 40 mg/kg (Rattus norvegicus [4]): 40%
C(=C\c1nc2ccccc2s1)/c1ccc(OCCCCN2CCCC2)cc1 | 260 | 160 | 20 | –
CCN(CC)CCCOc1ccc(/C=C/c2nc3ccccc3o2)cc1 | 980 | 320 | – | inhibition in vivo at 40 mg/kg (Rattus norvegicus [4]): 54%
CCCCN(CCCC)CCCOc1ccc(-c2nc3ccccc3[nH]2)cc1 | 1200 | 1800 | – | inhibition in vivo at 40 mg/kg (Rattus norvegicus [4]): 24%
CCCN(CCC)CCCCOc1ccc(/C=C/c2nc3ccccc3o2)cc1.Cl | 110 | 390 | 90 | ED50 (Rattus norvegicus [6]): 11.5 mg/kg
CCCN(CCC)CCCCOc1ccc(/C=C/c2nc3ccccc3s2)cc1.Cl.O | 120 | 30 | – | ED50 (Rattus norvegicus [6]): 13.6 mg/kg; inhibition in vivo at 40 mg/kg (Rattus norvegicus [4]): 93%
CCCN(CCC)CCCOc1ccc(/C=C/c2nc3ccccc3o2)cc1 | 350 | 220 | 77 | –
CCN(CC)CCCOc1ccc(-c2csc(-c3ccccc3)n2)cc1 | 90 | 120 | – | inhibition in vivo at 40 mg/kg (Rattus norvegicus [4]): 82%
FC(F)(F)c1ccc(-c2nc(-c3ccc(OCCCn4ccnc4)cc3)cs2)cc1 | 620 | 370 | 27 | –
CCCCN(CCCC)CCCOc1ccc(-c2csc(-c3ccc(OC)cc3)n2)cc1 | 230 | 480 | 4 | –
CCCCN(CCCC)CCCOc1ccc(-c2csc(-c3ccc(C)cc3)n2)cc1 | 3000 | 1500 | 41 | –

SMILES | IC50 [1, 7] [nM] | IC50 [2, 7] [nM] | inhibition in vivo at 20 mg/kg (Rattus norvegicus [3]) [%] | other results
CCCCN(CCCC)CCCOc1ccc(-c2csc(-c3ccc(Cl)cc3)n2)cc1 | 1800 | 2100 | 40 | –
CN/C(=N\CCSCc1nc[nH]c1C)NC#N [CIMETIDINE] | – | – | – | ED50 (Rattus norvegicus [6]): 32 mg/kg; IC50 [1]: > 100000 nM; IC50 [2]: 820 nM
CCCCN(CCCC)CCCOc1ccc(/C=C/c2nc3cc(C)ccc3s2)cc1 | 530 | 290 | 14 | –
CCCCN(CCCC)CCCOc1ccc(-c2nc3ccccc3s2)cc1 | 2600 | 250 | – | –
C(=C\c1nc2ccccc2s1)/c1ccc(OCCCN2CCCCC2)cc1 | 210 | 180 | 32 | –
CCN(CC)CCCCOc1ccc(/C=C/c2nc3ccccc3o2)cc1 | 120 | 80 | 31 | –
C(=C\c1nc2ccccc2o1)/c1ccc(OCCCn2ccnc2)cc1 | 250 | 290 | – | inhibition in vivo at 20 mg/kg (Rattus norvegicus [5]): 26%
CCCCN(CCCC)CCOc1ccc(-c2csc(-c3ccccc3)n2)cc1 | 350 | 310 | 41 | –
CCN(CC)CCCCOc1ccc(/C=C/c2nc3ccccc3s2)cc1 | 350 | 180 | 52 | –
CCCCN(CCCC)CCCOc1ccc(-c2nc(-c3ccccc3)sc2CC)cc1 | 240 | 340 | – | –
CCCCN(CCCC)CCCOc1ccc(/C=C/c2nc3ccc(OC)cc3s2)cc1 | 460 | 260 | 31 | –
CCN(CC)CCCOc1ccc(/C=C/c2nc3ccccc3s2)cc1 | 150 | 370 | – | inhibition in vivo at 40 mg/kg (Rattus norvegicus [4]): 71%
CCCN(CCC)CCCOc1ccc(/C=C/c2nc3ccccc3s2)cc1 | 140 | 210 | – | inhibition in vivo at 20 mg/kg (Rattus norvegicus [5]): 42%
c1ccc(-c2nc(-c3ccc(OCCCCn4ccnc4)cc3)cs2)cc1 | 310 | 820 | – | inhibition in vivo at 40 mg/kg (Rattus norvegicus [4]): 31%
c1cncc(-c2nc(-c3ccc(OCCCn4ccnc4)cc3)cs2)c1 | 3000 | 3300 | 53 | –
CCCCN(CCCC)CCCOc1ccc(/C=C/c2nc3ccccc3n2C)cc1 | 2600 | 800 | 1.6 | –
CCCCN(CCCC)CCCOc1ccc(/C=C/c2nc3cc(Cl)ccc3s2)cc1 | 500 | 400 | 26 | –
CCCCN(CCCC)CCCOc1ccc(-c2csc(C)n2)cc1 | 8400 | 1500 | 8 | –
Cl.O.c1ccc(-c2nc(-c3ccc(OCCCn4ccnc4)cc3)cs2)cc1 | 20 | 80 | – | ED50 (Rattus norvegicus [5]): 5.1 mg/kg; inhibition in vivo at 20 mg/kg (Rattus norvegicus [5]): 91%
C(=C\c1nc2ccccc2o1)/c1ccc(OCCCCCn2ccnc2)cc1 | 230 | 280 | 45 | –
CCCCN(CCCC)CCCOc1ccc(/C=C/c2nc3cc(C)ccc3o2)cc1 | 340 | 260 | – | inhibition in vivo at 40 mg/kg (Rattus norvegicus [4]): 88%
CCCN(CCC)CCCOc1ccc(-c2csc(-c3ccccc3)n2)cc1 | 180 | 230 | – | inhibition in vivo at 40 mg/kg (Rattus norvegicus [4]): 94%
C(=C\c1nc2ccccc2o1)/c1ccc(OCCCCN2CCCC2)cc1 | 240 | 170 | – | inhibition in vivo at 40 mg/kg (Rattus norvegicus [4]): 24%
CCCCN(CCCC)CCCOc1ccc(-c2csc(-c3cc(OC)cc(OC)c3)n2)cc1 | 540 | 260 | 17 | –
C(=C\c1nc2ccccc2o1)/c1ccc(OCCCCN2CCCCC2)cc1 | 330 | 170 | 42 | –
CCCCN(CCCC)CCCOc1ccc(-c2csc(-c3ccccc3)n2)cc1.Cl | 420 | 450 | – | ED50 (Rattus norvegicus [5]): 17 mg/kg; inhibition in vivo at 20 mg/kg (Rattus norvegicus [5]): 75%
